Laboratory results: patent US20150031674A1, “SERINE/THREONINE KINASE INHIBITORS” (GENENTECH, INC., priority 2013, published 2015)

Molecular target: human recombinant PAK1-KD protein (Homo sapiens, UniProt Q13153)
Experiment: PAK1-KD (Kinase Domain) IC50 Zlyte Assay (FRET peptide substrate phosphorylation)
Settings: Z'-LYTE, Biological Example 1

Chain of human recombinant PAK1-KD protein (Q13153 270-521 limits assumed): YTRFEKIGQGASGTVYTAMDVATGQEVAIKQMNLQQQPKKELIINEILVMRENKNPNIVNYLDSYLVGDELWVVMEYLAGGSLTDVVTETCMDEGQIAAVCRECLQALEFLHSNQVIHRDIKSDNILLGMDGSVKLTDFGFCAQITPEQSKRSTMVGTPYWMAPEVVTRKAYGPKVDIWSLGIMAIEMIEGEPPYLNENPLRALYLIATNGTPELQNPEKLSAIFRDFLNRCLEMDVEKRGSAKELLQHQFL

SMILES | Ki [nM]
CNc1ncc2cc(-c3ccc(-c4cccc(C)n4)cc3Cl)c(=O)n(CC[C@H]3OC[C@H](N)CO3)c2n1 [Example I-137, 8-[2-(5-amino-1,3-dioxan-2-yl)ethyl]-6-[2-chloro-4-(6-methyl-2-pyridyl)phenyl]-2-(methylamino)pyrido[2,3-d]pyrimidin-7-one] | 0.92
CNc1ncc2cc(-c3ccc(-c4cncc(C)n4)cc3Cl)c(=O)n(CCCCCN)c2n1 [Example I-138, 8-(5-aminopentyl)-6-[2-chloro-4-(6-methylpyrazin-2-yl)phenyl]-2-(methylamino)pyrido[2,3-d]pyrimidin-7-one] | 9.6
CNc1ncc2cc(-c3ccc(-c4cncc(C)n4)cc3Cl)c(=O)n(CCNCCO)c2n1 [Example I-139, 6-[2-chloro-4-(6-methylpyrazin-2-yl)phenyl]-8-[2-(2-hydroxyethylamino)ethyl]-2-(methylamino)pyrido[2,3-d]pyrimidin-7-one] | 56
CNc1ncc2cc(-c3ccc(-c4csc(C)n4)cc3Cl)c(=O)n(CCCN)c2n1 [Example I-140, 8-(3-aminopropyl)-6-[2-chloro-4-(2-methylthiazol-4-yl)phenyl]-2-(methylamino)pyrido[2,3-d]pyrimidin-7-one] | 8.06
CNc1ncc2cc(-c3ccc(-c4cccc(C)n4)cc3Cl)c(=O)n(CCS(=O)(=O)N3CCNCC3)c2n1 [Example I-141, 6-[2-chloro-4-(6-methyl-2-pyridyl)phenyl]-2-(methylamino)-8-(2-piperazin-1-ylsulfonylethyl)pyrido[2,3-d]pyrimidin-7-one] | 4
CNc1ncc2cc(-c3ccc(-c4cncc(C)n4)cc3Cl)c(=O)n(CC(=O)N[C@H]3CCNC3)c2n1 [Example I-142, 2-[6-[2-chloro-4-(6-methylpyrazin-2-yl)phenyl]-2-(methylamino)-7-oxo-pyrido[2,3-d]pyrimidin-8-yl]-N-[(3S)-pyrrolidin-3-yl]acetamide] | 14
CNc1ncc2cc(-c3ccc(-c4cncc(C)n4)cc3Cl)c(=O)n(CC(=O)N3CC[C@H](N)C3)c2n1 [Example I-143, 8-[2-[(3S)-3-Aminopyrrolidin-1-yl]-2-oxo-ethyl]-6-[2-chloro-4-(6-methylpyrazin-2-yl)phenyl]-2-(methylamino)pyrido[2,3-d]pyrimidin-7-one] | 12.5
CNc1ncc2cc(-c3ccc(-c4cncc(C)n4)cc3Cl)c(=O)n(C[C@H]3OC[C@H](N)CO3)c2n1 [Example I-145, 8-[(5-Amino-1,3-dioxan-2-yl)methyl]-6-[2-chloro-4-(6-methylpyrazin-2-yl)phenyl]-2-(methylamino)pyrido[2,3-d]pyrimidin-7-one] | 8.54
Cc1cncc(-c2ccc(-c3cc4cnc(NC5COC5)nc4n(C[C@H]4CNCCO4)c3=O)c(Cl)c2)n1 [Example I-146, 6-[2-Chloro-4-(6-methylpyrazin-2-yl)phenyl]-8-[[(2R)-morpholin-2-yl]methyl]-2-(oxetan-3-ylamino)pyrido[2,3-d]pyrimidin-7-one] | 10.7
CNc1ncc2cc(-c3ccc(-c4cccc(C)n4)cc3C)c(=O)n(C[C@H]3CNCCO3)c2n1 [Example I-148, 2-(Methylamino)-6-[2-methyl-4-(6-methyl-2-pyridyl)phenyl]-8-[[(2R)-morpholin-2-yl]methyl]pyrido[2,3-d]pyrimidin-7-one] | 7.3
Cc1cncc(-c2ccc(-c3cc4cnc(NC5COC5)nc4n(C[C@@H]4CNCCO4)c3=O)c(Cl)c2)n1 [Example I-149, 6-[2-Chloro-4-(6-methylpyrazin-2-yl)phenyl]-8-[[(2S)-morpholin-2-yl]methyl]-2-(oxetan-3-ylamino)pyrido[2,3-d]pyrimidin-7-one] | 9
CNc1ncc2cc(-c3ccc(-c4cncc(C)n4)cc3Cl)c(=O)n(CC(=O)N[C@@H]3CCNC3)c2n1 [Example I-151, 2-[6-[2-Chloro-4-(6-methylpyrazin-2-yl)phenyl]-2-(methylamino)-7-oxo-pyrido[2,3-d]pyrimidin-8-yl]-N-[(3R)-pyrrolidin-3-yl]acetamide] | 12.4
CNc1ncc2cc(-c3ccc(-c4cncc(C)n4)cc3Cl)c(=O)n(CC(=O)N3CC[C@@H](N)C3)c2n1 [Example I-152, 8-[2-[(3R)-3-Aminopyrrolidin-1-yl]-2-oxo-ethyl]-6-[2-chloro-4-(6-methylpyrazin-2-yl)phenyl]-2-(methylamino)pyrido[2,3-d]pyrimidin-7-one] | 21.1
CNc1ncc2cc(-c3ccc(-c4cncc(C)n4)cc3Cl)c(=O)n(CC(=O)N3CCC[C@@H]3CN)c2n1 [Example I-153, 8-[2-[(2R)-2-(Aminomethyl)pyrrolidin-1-yl]-2-oxo-ethyl]-6-[2-chloro-4-(6-methylpyrazin-2-yl)phenyl]-2-(methylamino)pyrido[2,3-d]pyrimidin-7-one] | 8.5
CNc1ncc2cc(-c3ccc(-c4cncc(C)n4)cc3Cl)c(=O)n(CC(=O)N3CCC[C@H]3CN)c2n1 [Example I-154, 8-[2-[(2S)-2-(Aminomethyl)pyrrolidin-1-yl]-2-oxo-ethyl]-6-[2-chloro-4-(6-methylpyrazin-2-yl)phenyl]-2-(methylamino)pyrido[2,3-d]pyrimidin-7-one] | 39.4
CNc1ncc2cc(-c3ccc(-c4cncc(C)n4)cc3Cl)c(=O)n(CC(=O)N3C[C@@H]4C[C@H]3CN4)c2n1 [Example I-155, 6-[2-Chloro-4-(6-methylpyrazin-2-yl)phenyl]-8-[2-[(1S,4S)-2 5-diazabicyclo[2.2.1]heptan-2-yl]-2-oxo-ethyl]-2-(methylamino)pyrido[2,3-d]pyrimidin-7-one] | 39.2

SMILES | Ki [nM]
CNc1ncc2cc(-c3ccc(-c4cncc(C)n4)cc3Cl)c(=O)n(CC(=O)NCCN)c2n1 [Example I-156, N-(2-aminoethyl)-2-[6-[2-chloro-4-(6-methylpyrazin-2-yl)phenyl]-2-(methylamino)-7-oxo-pyrido[2,3-d]pyrimidin-8-yl]acetamide] | 14.4
CNc1ncc2cc(-c3ccc(-c4cncc(C)n4)cc3Cl)c(=O)n(CC(=O)N3CCC(O)C3)c2n1 (stereo not shown) [Example I-157, 6-[2-chloro-4-(6-methylpyrazin-2-yl)phenyl]-8-[2-(3-hydroxypyrrolidin-1-yl)-2-oxo-ethyl]-2-(methylamino)pyrido[2,3-d]pyrimidin-7-one] | 44.9
CNc1ncc2cc(-c3ccc(-c4cncc(C)n4)cc3Cl)c(=O)n(CCN3CCOCC3)c2n1 [Example I-158, 6-[2-chloro-4-(6-methylpyrazin-2-yl)phenyl]-2-(methylamino)-8-(2-morpholinoethyl)pyrido[2,3-d]pyrimidin-7-one] | 78.2
Cc1cccc(-c2ccc(-c3cc4cnc(NC5COC5)nc4n(C[C@H]4CNCCO4)c3=O)c(Cl)c2)n1 [Example I-159, 6-[2-Chloro-4-(6-methyl-2-pyridyl)phenyl]-8-[[(2R)-morpholin-2-yl]methyl]-2-(oxetan-3-ylamino)pyrido[2,3-d]pyrimidin-7-one] | 10.8
CCNc1ncc2cc(-c3ccc(-c4cccc(C)n4)cc3Cl)c(=O)n(CCS(=O)(=O)C3CNC3)c2n1 [Example I-160, 8-[2-(azetidin-3-ylsulfonyl)ethyl]-6-[2-chloro-4-(6-methyl-2-pyridyl)phenyl]-2-(ethylamino)pyrido[2,3-d]pyrimidin-7-one] | 10.3
Cc1cccc(-c2ccc(-c3cc4cnc(NC5COC5)nc4n(CCCS(N)(=O)=O)c3=O)c(C)c2)n1 [Example I-161, 3-[6-[2-methyl-4-(6-methyl-2-pyridyl)phenyl]-2-(oxetan-3-ylamino)-7-oxo-pyrido[2,3-d]pyrimidin-8-yl]propane-1-sulfonamide] | 22
CNc1ncc2cc(-c3ccc(-c4cccc(C)n4)cc3Cl)c(=O)n(CS(=O)(=O)N3CCNCC3)c2n1 [Example I-162, 6-[2-chloro-4-(6-methyl-2-pyridyl)phenyl]-2-(methylamino)-8-(piperazin-1-ylsulfonylmethyl)pyrido[2,3-d]pyrimidin-7-one] | 14.7
Cc1cncc(-c2ccc(-c3cc4cnc(N)nc4n(C[C@H]4OC[C@H](N)CO4)c3=O)c(Cl)c2)n1 [Example I-163, 2-amino-8-[(5-amino-1,3-dioxan-2-yl)methyl]-6-[2-chloro-4-(6-methylpyrazin-2-yl)phenyl]pyrido[2,3-d]pyrimidin-7-one] | 26.9
Cc1cncc(-c2ccc(-c3cc4cnc(NC5COC5)nc4n(C[C@H]4OC[C@H](N)CO4)c3=O)c(Cl)c2)n1 [Example I-164, 8-[(5-amino-1,3-dioxan-2-yl)methyl]-6-[2-chloro-4-(6-methylpyrazin-2-yl)phenyl]-2-(oxetan-3-ylamino)pyrido[2,3-d]pyrimidin-7-one] | 9.9
CNc1ncc2cc(-c3ccc(-c4cccc(C)n4)cc3C)c(=O)n(CCN3CCOCC3)c2n1 [Example I-165, 2-(Methylamino)-6-[2-methyl-4-(6-methyl-2-pyridyl)phenyl]-8-(2-morpholinoethyl)pyrido[2,3-d]pyrimidin-7-one] | 16.7
Cc1cccc(-c2ccc(-c3cc4cnc(NC5COC5)nc4n(CCS(N)(=O)=O)c3=O)c(C)c2)n1 [Example I-166] | 17
Cc1cccc(-c2ccc(-c3cc4cnc(NC5COC5)nc4n(CCCO)c3=O)c(C)c2)n1 [Example I-168, 8-(3-hydroxypropyl)-6-[2-methyl-4-(6-methyl-2-pyridyl)phenyl]-2-(oxetan-3-ylamino)pyrido[2,3-d]pyrimidin-7-one] | 15.7
CNc1ncc2cc(-c3ccc(-c4cccc(C)n4)cc3Cl)c(=O)n(CC3(C#N)CCNCC3)c2n1 [Example I-169, 4-[[6-[2-chloro-4-(6-methyl-2-pyridyl)phenyl]-2-(methylamino)-7-oxo-pyrido[2,3-d]pyrimidin-8-yl]methyl]piperidine-4-carbonitrile] | 12
CNc1ncc2cc(-c3ccc(-c4cccc(C)n4)cc3C)c(=O)n(C[C@H]3OC[C@H](N)CO3)c2n1 [Example I-170, 8-[(5-Amino-1,3-dioxan-2-yl)methyl]-2-(methylamino)-6-[2-methyl-4-(6-methyl-2-pyridyl)phenyl]pyrido[2,3-d]pyrimidin-7-one] | 5.3
CNc1ncc2cc(-c3ccc(-c4cccc(C)n4)cc3C)c(=O)n(C[C@@H]3CNCCO3)c2n1 [Example I-171, 6-(2-methyl-4-(6-methylpyridin-2-yl)phenyl)-2-(methylamino)-8-[[(2S)-morpholin-2-yl]methyl]pyrido[2,3-d]pyrimidin-7(8H)-one] | 5
